We go through eight molecules from ChEMBL document CHEMBL1201862, “PubChem BioAssay data set” (2004).

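Growth conditions: 96-well plates. Treatment: test compound, 48 hours, 5 concentrations. Analysis: linear interpolation between bracketing concentrations; unreached endpoints set to highest concentration. GI50 is the concentration that inhibits growth by half.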 Activity calls are given as the source filed them. Rule as the data show it: active = GI50 up to about 1.1 µM and inactive = higher. Where a SMILES comes first, the peptide text is derived from it. [ ]: non-standard residue; d: D form. The star is where a group is joined. Cbz = O=C(OCc1ccccc1)*; Aib = CC(C)(N)C(=O)O

Assay in all cases: growth of human tumour cells (NCI), 48 h
Experiment [1] concerns LOX IMVI.
The test system of experiment [2] is EKVX.
Experiment [3] has as its system A549.
Experiment [4] has as its system TK-10.
Experiment [5] concerns SF-268.
Experiment [6] has as its system SK-OV-3.
Experiment [7] has as its system A498.
Experiment [8] has as its system RXF 393.
Experiment [9] has as its system OVCAR-8.
The test system of experiment [10] is SN12C.
The subject of experiment [11] is SR.
For experiment [12], the system named is CCRF-CEM.
Experiment [13] deals with SNB-19.
Experiment [14] has as its system HT-29.
Experiment [15] relates to HCT-116.
The subject of experiment [16] is OVCAR-3.
Experiment [17] deals with 786-0.
Experiment [18] has as its system NCI/ADR-RES.
For experiment [19], the system named is MDA-N.

Take `COC(OC)[C@@H](C)[C@H](O)[C@](C)(O)C1OC(C)(C)OC(C(C)C=C(C)C)C1C` (some centres undefined): the GI50 in experiment [1], in experiment [2], in [3], in experiment [4], in experiment [5] and in experiment [6] was > 100 µM (inactive) throughout. Besides, the GI50 in experiment [7] is > 100 µM (inactive); in [8], 66.4 µM (inactive); in experiment [9], > 100 µM (inactive); in experiment [10], > 100 µM (inactive); in experiment [11], 73.3 µM (inactive); in experiment [12], > 100 µM (inactive). In addition, the GI50 in [13], in experiment [14], in experiment [15], in experiment [16] and in experiment [17] was > 100 µM (inactive) throughout.

On to `CC(=O)CC1(OC(=O)C2C(C=C(C)C)C2(C)C)C(=O)Nc2ccccc21` (centres undefined), for which the GI50 in [1], in experiment [2], in experiment [3], in experiment [4], in [5] and in experiment [6] was > 100 µM (inactive) in each case. Moreover, the GI50 in [7] was > 100 µM (inactive); in experiment [8] it was > 100 µM (inactive); in experiment [18], 68.5 µM (inactive); in [9], > 100 µM (inactive); in experiment [10] it was > 100 µM (inactive); in experiment [11] it was > 100 µM (inactive). In addition, the GI50 in [12] was 55.3 µM (inactive); in experiment [13], > 100 µM (inactive); in experiment [19], > 100 µM (inactive); in experiment [14], > 100 µM (inactive); in [15], > 100 µM (inactive); in [16], 54.2 µM (inactive). For the same molecule, the GI50 in experiment [17] is > 100 µM (inactive).

As to `CCOC(=O)C(=O)Nc1c(F)cc(F)cc1Br`, the GI50 in experiment [1], in [2], in experiment [3], in experiment [4], in experiment [5] and in experiment [6] was > 100 µM (inactive) each time. In addition, the GI50 in [7], in experiment [8], in experiment [9], in experiment [10], in experiment [11] and in experiment [12] was > 100 µM (inactive) throughout. In addition, the GI50 in [13], in [14], in experiment [15], in [16] and in experiment [17] was > 100 µM (inactive) in each case.

Turning to `O=C1/C(=C/c2ccccc2)CN(C(=O)Oc2ccc([N+](=O)[O-])cc2)C/C1=C\c1ccccc1`, the GI50 was 0.676 µM (active) in experiment [1]; > 10 µM (inactive) in [2]; > 10 µM (inactive) in experiment [3]; > 10 µM (inactive) in [4]; 5.09 µM (inactive) in experiment [5]; > 10 µM (inactive) in experiment [6]. For the same molecule, the GI50 in experiment [7] is > 10 µM (inactive); in experiment [8] it was 6.84 µM (inactive); in experiment [9] it was 1.12 µM (active); in experiment [10] it was 2.79 µM (inactive); in [11] it was 2.1 µM (inactive); in experiment [12], 1.38 µM (inactive). Moreover, the GI50 in experiment [13] is 6.65 µM (inactive); in experiment [14], 1.42 µM (inactive); in [15] it was 0.506 µM (active); in [16] it was 3.73 µM (inactive); in [17], 4.49 µM (inactive).

Take `CC(=O)OCC1OC(OC2CC3C(C)(C)C(OC(C)=O)CC[C@]3(C)C3CCC45CC4(CC[C@H]5C(C)CC(O)C4OC4(C)C)[C@]23C)C(O)C(O)C1O` (some centres undefined): the GI50 in [1] was 1.63 µM (inactive); in experiment [2] it was 3.11 µM (inactive); in experiment [3], 2.09 µM (inactive); in experiment [4], 3.35 µM (inactive); in [5] it was 2.44 µM (inactive); in experiment [6], 2.3 µM (inactive). The GI50 was 4.72 µM (inactive) in experiment [7]; 1.55 µM (inactive) in [8]; 2.2 µM (inactive) in [9]; 2.29 µM (inactive) in experiment [10]; 2.65 µM (inactive) in experiment [11]; 1.04 µM (active) in experiment [12]. The GI50 is 4.06 µM (inactive) in experiment [13]; 0.92 µM (active) in [14]; 1.34 µM (inactive) in experiment [15]; 2.58 µM (inactive) in [16]; 2.7 µM (inactive) in [17].

Regarding `O=c1[nH]c(=O)n(Cc2ccccc2CO)cc1Sc1ccccc1`, the GI50 in experiment [2] was 21 µM (inactive); in experiment [3] it was 18.5 µM (inactive); in experiment [4], 30.7 µM (inactive); in [5], 22.8 µM (inactive); in experiment [6], 42.4 µM (inactive); in experiment [8], 24.7 µM (inactive). The GI50 was 26.8 µM (inactive) in experiment [18]; 17.7 µM (inactive) in [9]; 34.8 µM (inactive) in [10]; 25.4 µM (inactive) in [11]; 28.7 µM (inactive) in [12]; 35.7 µM (inactive) in experiment [13]. Moreover, the GI50 in experiment [14] was 30.5 µM (inactive); in experiment [15], 25.3 µM (inactive); in experiment [16], 19.5 µM (inactive); in experiment [17] it was 47.2 µM (inactive).

Take `Oc1ccc2ccccc2c1/N=N\c1cccc2ccccc12`: the GI50 in experiment [1] is > 100 µM (inactive); in [2], 36 µM (inactive); in experiment [3] it was > 100 µM (inactive); in [4], > 100 µM (inactive); in experiment [5] it was > 100 µM (inactive); in [6] it was > 100 µM (inactive). Also, the GI50 in experiment [8] is > 100 µM (inactive); in experiment [18], > 100 µM (inactive); in experiment [9] it was > 100 µM (inactive); in [10], > 100 µM (inactive); in experiment [11], < 0.01 µM (active); in experiment [12], 58.1 µM (inactive). Further, the GI50 in experiment [13], in experiment [19], in experiment [14], in experiment [15], in experiment [16] and in experiment [17] was > 100 µM (inactive) throughout.

On to `CC(C)(NC(=O)C(C)(C)NC(=O)OCc1ccccc1)C(=O)O` (Cbz-[Aib]-[Aib]-OH), for which the GI50 in [1], in experiment [2], in [3], in experiment [4], in experiment [5] and in experiment [6] was > 100 µM (inactive) throughout. Further, the GI50 in experiment [7], in experiment [18], in [9], in experiment [10], in experiment [11] and in experiment [12] was > 100 µM (inactive) in each case. In addition, the GI50 in experiment [13], in experiment [19], in [14], in experiment [15], in experiment [16] and in experiment [17] was > 100 µM (inactive) each time.
